Assay results reported in PMC12903857.
Several values for one entry are separate records, joined by “and”; a condition that tells them apart may be missing. Equal entries are not always repeated. Blank lines part the entries; values can stand above or below the compound they belong to.

Experiments:
[1] = test system: 80 peptides representing a diverse set of 14-3-3 clients; test: FA selectivity panel, single point; details: 10.5 μM compound, 100 nM client peptides, overnight; hit = change in anisotropy of more than 15 units
Description: (§1) concentraton (50 μM, maximum eﬀect) was used.
giving the anisotropy change (ΔAU ) .
sele tme: 0 ms, gain: optmal).

pERK [2] = test: Lumit immunoassay for pERK levels in HEK293T cells; type: cell-based
pERK [3] = test: Lumit immunoassay for pERK with 14-3-3 C38N mutant; type: cell-based; details: HEK293T
N-RAS Q61L/C-RAF = details: HEK293T; 100% = DMSO mBU, 0% = N-RAS/C-RAF R89L
14-3-3σ/KC1A = 14-3-3σ/KC1A (Homo sapiens, UniProt P31947); test: FA compound titration follow-up from selectivity panel
Description: as §1
giving the anisotropy change (ΔAU ) .
sele tme: 0 ms, gain: optmal).

14-3-3σ/C-RAF259 [4] = biological target: T1, 14-3-3σ/C-RAF259 (Homo sapiens, UniProt P31947); test: Fluorescence anisotropy (FA) compound titration; type: binding; details: 10 nM C-RAF259-FAM 10-mer, 5 μΜ 14-3-3σ, overnight; read-out: Compound titrations EC50 value C-RAF259
A-RAF/C-RAF = test: NanoBRET for heterodimer formation A-RAF/C-RAF
14-3-3σ/A-RAF = 14-3-3σ/A-RAF (Homo sapiens, UniProt P31947)
14-3-3σ/SOS1 = 14-3-3σ/SOS1 (Homo sapiens, UniProt P31947); test: FA compound titration follow-up from selectivity panel
Description: as §1
giving the anisotropy change (ΔAU ) .
sele tme: 0 ms, gain: optmal).

14-3-3σ/TAZ = 14-3-3σ/TAZ (Homo sapiens, UniProt P31947); test: as above
Description: as §1
giving the anisotropy change (ΔAU ) .
sele tme: 0 ms, gain: optmal).

14-3-3σ/C-RAF [5] = biological target: T2, 14-3-3σ/C-RAF (Homo sapiens, UniProt P31947); test: cell-based
Target sequence in this assay (P04049 whole entry partner, one chain of several): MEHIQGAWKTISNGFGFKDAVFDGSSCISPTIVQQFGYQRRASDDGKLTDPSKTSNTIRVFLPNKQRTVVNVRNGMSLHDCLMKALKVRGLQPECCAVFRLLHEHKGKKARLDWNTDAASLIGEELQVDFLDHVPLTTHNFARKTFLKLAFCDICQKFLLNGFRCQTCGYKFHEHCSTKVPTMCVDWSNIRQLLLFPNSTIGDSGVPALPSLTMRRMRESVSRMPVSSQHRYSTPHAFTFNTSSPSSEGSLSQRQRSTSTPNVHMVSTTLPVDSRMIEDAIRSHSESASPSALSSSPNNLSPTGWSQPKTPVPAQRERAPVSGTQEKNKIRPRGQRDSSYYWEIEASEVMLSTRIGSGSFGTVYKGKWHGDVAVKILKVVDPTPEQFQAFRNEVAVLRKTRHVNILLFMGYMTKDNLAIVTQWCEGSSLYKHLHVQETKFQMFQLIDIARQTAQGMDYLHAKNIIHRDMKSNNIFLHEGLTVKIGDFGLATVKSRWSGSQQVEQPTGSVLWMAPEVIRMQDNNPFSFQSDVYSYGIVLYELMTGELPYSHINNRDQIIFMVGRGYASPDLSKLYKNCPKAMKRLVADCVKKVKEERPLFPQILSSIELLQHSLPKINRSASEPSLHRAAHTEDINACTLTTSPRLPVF
Description: (§2) Stabilization of the interaction with a molecular glue was expected to lead to an increase in the intensity of the BRET signal.
Both cell lines were grown in
All compound treatments were 24 hours.
Brieﬂy, HEK293T cells were

14-3-3σ/C-RAF259 [6] = biological target: T1, 14-3-3σ/C-RAF259; test: FA compound titration follow-up from selectivity panel
Description: as §1
giving the anisotropy change (ΔAU ) .
sele tme: 0 ms, gain: optmal).

14-3-3σ/B-RAF = 14-3-3σ/B-RAF (Homo sapiens, UniProt P31947)
C-RAF/C-RAF = details: with N-RAS Q61L; 100% = DMSO mBU
Description: We aimed to study potential effects of the molecular glues on RAF-dimer formation using a NanoBRET assay.
All compound treatments were 24 hours.

14-3-3σ/TSC2 = 14-3-3σ/TSC2 (Homo sapiens, UniProt P31947); test: FA compound titration follow-up from selectivity panel
Description: as §1
giving the anisotropy change (ΔAU ) .
sele tme: 0 ms, gain: optmal).

14-3-3σ/C-RAF [7] = biological target: T2, 14-3-3σ/C-RAF
B-RAF/C-RAF = test: NanoBRET for heterodimer formation B-RAF/C-RAF
14-3-3σ [8] = biological target: T3, 14-3-3σ (Homo sapiens, UniProt P31947); test: FA, Kd of 15-mer RAF peptides
T3 sequence (P31947 1-248): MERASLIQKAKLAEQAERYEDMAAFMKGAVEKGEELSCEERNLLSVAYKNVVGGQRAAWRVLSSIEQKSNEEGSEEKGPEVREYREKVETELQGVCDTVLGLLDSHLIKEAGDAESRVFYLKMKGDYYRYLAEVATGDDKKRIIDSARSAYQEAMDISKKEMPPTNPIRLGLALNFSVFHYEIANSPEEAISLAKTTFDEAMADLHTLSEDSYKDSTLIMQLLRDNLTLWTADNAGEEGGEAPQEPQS
Description: (§3) Ea ch compound was measured in triplicates, i n two i ndependent experi ments. Fluorescence anisotropy measurements were performed directly and a€er overnight incubaton at room temperature.
(§4) Fluorescence anisotropy measurements were performed a€er overnight incubaton at room temperature .

14-3-3σ/C-RAF259 [9] = biological target: T1, 14-3-3σ/C-RAF259; test: FA protein titration, C-RAF259 peptide; details: appKd DMSO / appKd compound
Description: The following peptdes were used in the FA selectvity panel:
SOS1 pS1161: FITC-Ahx-PRRRPE{pS}APAESS-CONH2, TSC2 pS1254: FAM-Ahx-LY K S L { p S } V PA A S TA K-CONH2, ARHG2 pS886: FAM-Ahx-PVDPRRR{pS}LPAGDAL-CONH2.
Mass spectrometry dose response assays were performed on a Waters Acquity UPLC/ Xevo G2-XS Q-To f m a s s
samples prior to applicaton on the mass spectrometer. For 19-point MS dose responses, 50 mM compound stocks
transferred in the assay plates.
Assay buﬀer was TRIS (10 mM, pH 8.0) and ﬁnal volume per well was 50
μL, with ﬁnal top concentraton of compounds dose response series at 1 mM.
24 μL of sample were needed for the tme-course
(BSA; Sigma-Aldrich). Final DMSO in the assay was less than 1%. Diluton series of 14-3-3 proteins or compounds
dispensed in the assay plates. […] Ea ch compound was measured in triplicates, i n two i ndependent experi ments. Fluorescence anisotropy measurements were performed directly and a€er overnight incubaton at room temperature. The high
(10 nM) and DMSO or compound (100 µM). Fluorescence anisotropy measurements were performed a€er overnight incubaton at room temperature .

14-3-3σ/B-RAF365 = biological target: T4, 14-3-3σ/B-RAF365 (Homo sapiens, UniProt P31947); test: Intact mass spectrometry assay with B-RAF365 peptide; type: binding; details: 1 μM compound, 100 nM 14-3-3σ, 5 µM peptide
T4 construct: full-length for mass spectrometry and fluorescence anisotropy assays; made in house; host or cells: E. coli Rosetta 2(DE3)pLysS (14-3-3σ); peptides from Elim Biopharmaceuticals

14-3-3σ/A-RAF214 = 14-3-3σ/A-RAF214 (Homo sapiens, UniProt P31947); test: Intact mass spectrometry assay with A-RAF214 peptide; details: 1 μM compound, 100 nM 14-3-3σ, 16 µM peptide
Description: as §3, §4

14-3-3σ/C-RAF [10] = biological target: T2, 14-3-3σ/C-RAF; details: HEK293T cells, mBU compound / mBU DMSO
Target sequence in this assay (P04049 whole entry partner, one chain of several): as the sequence (P04049 whole entry partner, one chain of several) above
Description: as §2
Both cell lines were grown in
All compound treatments were 24 hours.
Brieﬂy, HEK293T cells were

14-3-3σ/C-RAF259 [11] = biological target: T1, 14-3-3σ/C-RAF259; test: Intact mass spectrometry assay with C-RAF259 phospho-peptide; type: binding; set-up: full-length for mass spectrometry and fluorescence anisotropy assays; made in house; host or cells: E. coli Rosetta 2(DE3)pLysS (14-3-3σ); peptides from Elim Biopharmaceuticals; details: 1 μM compound, 100 nM 14-3-3σ, 18 µM peptide
14-3-3σ [12] = biological target: T3, 14-3-3σ; test: Intact mass spectrometry assay, apo (no peptide); type: binding; set-up: full-length for mass spectrometry and fluorescence anisotropy assays; made in house; host or cells: E. coli Rosetta 2(DE3)pLysS, pPROEX HTb vector; details: 1 μM compound, 100 nM 14-3-3σ
[13] = 14-3-3σ covalently bound to compound, Replicate 1 and 2

Compound: O=C(CCl)NCC1CCN(S(=O)(=O)c2ccc(Br)cc2)CC1 [Compound 22]
- clients emerged as hits [1]: six

Compound: CC(=O)Nc1cccc(-n2c(=O)n(C3CC3)c(=O)c3c(Nc4ccc(I)cc4F)n(C)c(=O)c(C)c32)c1 [Trametinib, reference compound]
- time taken to modulate the pathway (pERK [2]; pERK modulation): 3 h
- effect on pERK with the C38N mutant (pERK [3]): same effect

Compound: O=C(CCl)NCC1CCN(S(=O)(=O)c2ccc(I)cc2)CC1 [Compound 23]
- IC50 (pERK [2]; Homo sapiens, HEK-293T, HEK293T, 14-3-3σ and C-RAF transfected, 24 h, EGF stimulation): 4.4 µM
- reduction of the N-RAS Q61L/C-RAF interaction (N-RAS Q61L/C-RAF): 75%
- EC50 (14-3-3σ/KC1A): 38.1 µM
- EC50 (14-3-3σ/C-RAF259 [4]): 1 ± 0.5 µM
- decrease of the A-RAF/C-RAF interaction (A-RAF/C-RAF): 23%
- ka, single replicates, A-RAF 12-mer (14-3-3σ/A-RAF; [13]): 1.25e+07 M⁻¹ s⁻¹ and 1.02e+07 M⁻¹ s⁻¹
- kd, single replicates, A-RAF 12-mer (14-3-3σ/A-RAF; [13]): 0.0189 s⁻¹ and 0.0196 s⁻¹
- affinity increase, A-RAF (14-3-3σ/A-RAF; vs binary interaction): 1000 fold
- EC50 (14-3-3σ/SOS1): 24.2 µM
- EC50 (14-3-3σ/TAZ): 11.7 µM
- EC50 (14-3-3σ/C-RAF [5]): 0.18 µM
- EC50 (14-3-3σ/C-RAF259 [6]): 5.1 µM
- ka, single replicates, B-RAF 12-mer (14-3-3σ/B-RAF; [13]): 9.53e+06 M⁻¹ s⁻¹ and 8.53e+06 M⁻¹ s⁻¹
- kd, single replicates, B-RAF 12-mer (14-3-3σ/B-RAF; [13]): 0.0572 s⁻¹ and 0.0569 s⁻¹
- affinity increase, B-RAF (14-3-3σ/B-RAF; vs binary interaction): 400 fold
- effect on pERK with the C38N mutant (pERK [3]): No effect
- decrease in C-RAF homodimer formation (C-RAF/C-RAF): 47%
- EC50 (14-3-3σ/TSC2): 19.2 µM
- ka, single replicates, C-RAF 12-mer (14-3-3σ/C-RAF [7]; [13]): 1.12e+07 M⁻¹ s⁻¹ and 1.09e+07 M⁻¹ s⁻¹
- kd, single replicates, C-RAF 12-mer (14-3-3σ/C-RAF [7]; [13]): 0.0131 s⁻¹ and 0.0133 s⁻¹
- affinity increase, C-RAF (14-3-3σ/C-RAF [7]; vs binary interaction): 2000 fold
- decrease of the B-RAF/C-RAF dimer (B-RAF/C-RAF): 15%
- clients emerged as hits [1]: four

Second part, led by results:

- Kd (14-3-3σ [8]): 8 to 10 µM
Compound: CSCC[C@H](NC(=O)[C@H](Cc1c[nH]cn1)NC(=O)[C@@H](NC(=O)[C@H](CC(N)=O)NC(=O)[C@@H]1CCCN1C(=O)[C@@H](NC(=O)[C@H](COP(=O)(O)O)NC(=O)[C@@H](NC(=O)[C@H](CO)NC(=O)[C@H](CCCNC(=N)N)NC(=O)[C@H](CCC(N)=O)NC(=O)[C@H](CCCNC(=N)N)NC(=O)[C@H](CCC(N)=O)NC(=O)[C@H](CO)NC(=O)c1ccc2c(c1)C(=O)OC21c2ccc(O)cc2Oc2cc(O)ccc21)[C@@H](C)O)[C@@H](C)O)C(C)C)C(=O)N[C@H](C(N)=O)C(C)C [C-RAF 15-mer, 5-FAM-SQRQRST{pS}TPNVHMV-CONH2]

- Kd (14-3-3σ [8]): 8 to 10 µM
Compound: CC[C@H](C)[C@H](NC(=O)[C@H](CCCNC(=N)N)NC(=O)[C@H](CCC(N)=O)NC(=O)[C@H](CC(C)C)NC(=O)c1ccc2c(c1)C(=O)OC21c2ccc(O)cc2Oc2cc(O)ccc21)C(=O)N[C@@H](CCCNC(=N)N)C(=O)N[C@@H](CO)C(=O)N[C@H](C(=O)N[C@@H](COP(=O)(O)O)C(=O)N[C@H](C(=O)N1CCC[C@H]1C(=O)N[C@@H](CC(N)=O)C(=O)N[C@H](C(=O)N[C@@H](Cc1c[nH]cn1)C(=O)N[C@@H](CCSC)C(=O)N[C@H](C(N)=O)C(C)C)C(C)C)[C@@H](C)O)[C@@H](C)O [A-RAF 15-mer]

- Fold stabilization (100 µM compound), C-RAF259 (10mer) (14-3-3σ/C-RAF259 [9]): lacked an effect
- Fold stabilization (100 µM compound), C-RAF259 (10mer) (14-3-3σ/C-RAF259 [9]; listed as (8)): 1 fold
- EC50 (14-3-3σ/C-RAF259 [4]): > 1000 µM
- % bound, B-RAF365 (10mer), 1h (14-3-3σ/B-RAF365; 1 h): 0%
- % bound, B-RAF365 (15mer), 1h (14-3-3σ/B-RAF365; 1 h): 0%
- % bound, B-RAF365 (10mer), 8h (14-3-3σ/B-RAF365; 8 h): 0%
- % bound, B-RAF365 (15mer), 8h (14-3-3σ/B-RAF365; 8 h): 0%
- % bound, B-RAF365 (10mer), 16h (14-3-3σ/B-RAF365; 16 h): 2.5%
- % bound, B-RAF365 (15mer), 16h (14-3-3σ/B-RAF365; 16 h): 0.9%
- % bound, B-RAF365 (10mer), 24h (14-3-3σ/B-RAF365; 24 h): 2.5%
- % bound, B-RAF365 (15mer), 24h (14-3-3σ/B-RAF365; 24 h): 3.8%
- % bound, A-RAF214 (15mer), 1h (14-3-3σ/A-RAF214; 1 h): 0%
- % bound, A-RAF214 (15mer), 8h (14-3-3σ/A-RAF214; 8 h): 0%
- % bound, A-RAF214 (15mer), 16h (14-3-3σ/A-RAF214; 16 h): 0%
- % bound, A-RAF214 (15mer), 24h (14-3-3σ/A-RAF214; 24 h): 0%
- 14-3-3/C-RAF NanoBRET fold stab. (14-3-3σ/C-RAF [10]): No increase
- % bound, C-RAF259 (11mer), 1h (14-3-3σ/C-RAF259 [11]; 1 h): 2.9% and 0%
- % bound, C-RAF259 (15mer), 1h (14-3-3σ/C-RAF259 [11]; 1 h): 0%
- % bound, C-RAF259 (11mer), 8h (14-3-3σ/C-RAF259 [11]; 8 h): 5.6% and 0%
- % bound, C-RAF259 (15mer), 8h (14-3-3σ/C-RAF259 [11]; 8 h): 0%
- % bound, C-RAF259 (11mer), 16h (14-3-3σ/C-RAF259 [11]; 16 h): 5.6%
- % bound, C-RAF259 (15mer), 16h (14-3-3σ/C-RAF259 [11]; 16 h): 0%
- % bound, C-RAF259 (11mer), 24h (14-3-3σ/C-RAF259 [11]; 24 h): 5.6% and 2.9%
- % bound, C-RAF259 (15mer), 24h (14-3-3σ/C-RAF259 [11]; 24 h): 0%
- % bound, APO, 1h (14-3-3σ [12]; 1 h): 0%
- % bound, APO, 8h (14-3-3σ [12]; 8 h): 0%
- % bound, APO, 16h (14-3-3σ [12]; 16 h): 1.9%
- % bound, APO, 24h (14-3-3σ [12]; 24 h): 2.9%
Compound: O=C(CCl)NCC1CCN(S(=O)(=O)Cc2cccc(F)c2)CC1 [Compound 8]
- effect on phosphorylation of ERK (pERK [2]; HEK293T, 24 h, EGF stimulation, 23 at 10 μM): No effect
- reduction of the N-RAS Q61L/C-RAF interaction (N-RAS Q61L/C-RAF): did not affect
